Where two headings read alike, the source gives them in different places.
How the values were obtained:
poly(dA-dT)n = experiment: DNA thermal melting; type: binding; conditions: thermal melting with poly(dA-dT); compared with DB766
[1] = tested on: intracellular Leishmania amazonensis; experiment: Efficacy against intracellular Leishmania amazonensis parasites; type: cell-based; conditions: read-out: IC50 L. a., intracellular L. amazonensis
[2] = Preliminary in vivo toxicity evaluation in uninfected animals; set-up: species or system mice; conditions: for Adverse reaction after dosing: mouse, in vivo, ip, 30 mg/kg
[3] = tested on: intracellular Leishmania amazonensis; conditions: read-out: IC50 L. a.; cited from earlier work
[4] = tested on: intracellular Leishmania donovani; conditions: read-out: IC50 L. d.; cited from earlier work
Leishmania = conditions: read-out: IC50 value (antileishmanial, in vitro); cited from earlier work

Compound	DNA binding (in words) (poly(dA-dT)n)	Toxicity to mice (in words) [2]	Adverse reaction after dosing [2]	further results
Cl.Cl.N=C(Nc1ccc(NC(=N)c2ccccn2)cc1)c1ccccn1 [3a, N,N'-(1,4-phenylene)dipicolinimidamide hydrochloride]	essentially do not bind to DNA	–	–	–
Cl.Cl.N=C(Nc1ccc(NC(=N)c2ncccn2)cc1)c1ncccn1 [3b, N,N'-(1,4-phenylene)dipyrimidine-2-carboximidamide hydrochloride]	essentially do not bind to DNA	–	–	–
Cl.Cl.N=C(Nc1ccc(-c2ccc(NC(=N)c3ccccn3)cc2)cc1)c1ccccn1 [9a, N,N'-([1,1'-biphenyl]-4,4'-diyl)dipicolinimidamide hydrochloride]	binds with the same affinity as DB766	quite toxic to mice	severe tremors	IC50 [1]: < 1000 nM
Cl.Cl.N=C(Nc1ccc(Oc2ccc(NC(=N)c3ccccn3)cc2)cc1)c1ccccn1 [9c, N,N'-(oxybis(4,1-phenylene))dipicolinimidamide hydrochloride]	–	quite toxic to mice	severe tremors	IC50 [1]: < 1000 nM
CC(C)Oc1cc(NC(=N)c2ccccn2)ccc1-c1ccc(-c2ccc(NC(=N)c3ccccn3)cc2OC(C)C)o1 [DB766]	–	–	–	IC50 [3]: 87 nM; IC50 [4]: 36 nM; IC50 (Leishmania): < 100 nM
Cl.Cl.N=C(Nc1ccccn1)c1ccc(C(=N)Nc2ccccn2)cc1 [compound 6, N ^1,N ^4-di(pyridin-2-yl)terephthalimidamide hydrochloride]	essentially do not bind to DNA	–	–	–
CC(C)Oc1cc(NC(=N)c2ccccn2)ccc1-c1ccc(NC(=N)c2ccccn2)cc1OC(C)C.Cl.Cl [compound 13, N,N'-(2,2'-di-isopropoxy-[1,1'-biphenyl]-4,4'-diyl)dipicolinimidamide hydrochloride]	essentially does not bind to DNA	quite toxic to mice	severe tremors	–

From paper PMC3560421 (European journal of medicinal chemistry, 2012)
